Experiment: Human HepG2 cell viability assay in 384 well format
Format: toxicity, cell-based
Set-up: dose 125 nL, time 70.5 hour; cytotoxicity at 70.5 h: concentration not given beside the values
Conditions: HepG2 cells, read-out: Inhibition

SMILES	cytotoxicity at 70.5 h
CN(C)c1cc(CNC(=O)c2ccccc2Cl)ccn1	1.6%
CCOc1ncccc1NC(=O)C1CCS(=O)(=O)C1 (stereo unspecified)	0.736%
CC(Cn1ccnc1)NC(=O)N(C)Cc1ccc2c(c1)OCCO2 (stereo unspecified)	26.7%
CN1C(=O)Cc2cc(-c3csc(CCN4CCOC4=O)n3)ccc21	6.81%
CC(Cn1ccnc1)NC(=O)Cc1ccc2c(c1)OCCO2 (stereo unspecified)	-0.766%
COc1ccc(CC(=O)NC2CCN(CC(F)F)CC2)cc1OC	0.793%
O=C(NCc1cc[nH]n1)NCC(O)c1ccc(F)c(F)c1 (stereo unspecified)	1.18%
CC(c1cc(F)ccc1F)N1CCN(Cc2nccn2C)CC1 (stereo unspecified)	2.5%
CC(O)CN1CCN(C(=O)c2ccc(N3CCCC3)nn2)CC1 (stereo unspecified)	1.72%
Cc1csc(NC(=O)CN2CCc3c(nc(C4CC4)n3C)C2)n1	-1.68%
CCc1nc(CN(C)C2CCN(CCc3ccncc3)C2)no1 (stereo unspecified)	-1.6%
Cc1nc(CNC(=O)N(CCCO)C2CCc3ccccc32)oc1C (stereo unspecified)	-1.03%
Cc1nccc(CNC(=O)N(CCCO)C2CCc3ccccc32)n1 (stereo unspecified)	30.5%
CCc1[nH]ncc1C(=O)N1CCCC(n2cc(C)cn2)C1 (stereo unspecified)	-5.59%
CCc1ncc2c(n1)CN(CCCc1nc3ccccc3o1)CC2	0.768%
Cc1ncc(CNC(=O)N(CCCO)C2CCc3ccccc32)s1 (stereo unspecified)	-5.3%
Cc1nc(C)n(C2CCCN(C(=O)c3c(C)nn4cccnc34)C2)n1 (stereo unspecified)	20.7%
Cc1csc(C2CCCN(C(=O)c3c(C)nn4cccnc34)C2)n1 (stereo unspecified)	-4.25%
Cc1ccc(NC2CCN(C(=O)c3cccc4c3ccn4C)CC2)nn1	-3.5%
Cc1nn2cccnc2c1C(=O)N1CCCC(n2cccn2)C1 (stereo unspecified)	17.9%
O=C(c1cnn2cccnc12)N1CCCC(n2ccnc2)C1 (stereo unspecified)	-3.58%
Cc1noc(C)c1CS(=O)(=O)CC(=O)N1CCc2sccc2C1	-3.02%
CC(NC(=O)NCCCn1cncn1)c1ccccc1F (stereo unspecified)	-4.63%
Cc1csc(N2CCCN(CCC(=O)NC(N)=O)CC2)n1	-1.42%

SMILES	cytotoxicity at 70.5 h
c1ccc(Cc2noc(CN3CCOC(Cn4cccn4)C3)n2)cc1 (stereo unspecified)	-3.64%
CCCc1nc(CN2CCOC(Cn3cccn3)C2)no1 (stereo unspecified)	-1.75%
c1ccc2oc(CCCN3CCc4cncnc4C3)nc2c1	-2.93%
CC(C)c1nnc2n1CCN(C(=O)c1ccc(N(C)C)nn1)C2	2.93%
Cc1nn2cccnc2c1C(=O)N1CCCC(n2ccnc2C)C1 (stereo unspecified)	-4.03%
CCc1[nH]ncc1C(=O)N1CCCC(n2ccnc2C)C1 (stereo unspecified)	-7.72%
Cc1ncc2c(n1)CN(CCCc1ccccc1)CC2	0.152%
Cc1ccc(NC2CCN(C(=O)c3nccc4ccccc34)CC2)nn1	-4.93%
Cc1ccc(NC2CCN(C(=O)c3cccc4[nH]ncc34)CC2)nn1	-4.9%
Cn1c(CNCC2CCCN2c2cccnn2)nc2ccccc21 (stereo unspecified)	-1.26%
Cc1ccc(NC2CCN(C(=O)c3cccnc3O)CC2)nn1	16.5%
c1ccc(Cn2ccnc2CNCC2CCCN2c2cccnn2)cc1 (stereo unspecified)	4.91%
Cc1cnc(CN2CCCC2c2noc(C3CC3)n2)cn1 (stereo unspecified)	-6.3%
Cc1nc(C2CCCN2Cc2nccn2CC(F)(F)F)no1 (stereo unspecified)	-2.36%
CN(Cc1nnc(C2CC2)n1C)C1CCN(CCc2cnn(C)c2)C1 (stereo unspecified)	39.7%
Cc1ccc(C(=O)N2CCN(Cc3ccccc3)CC2)n1C	21%
Cc1cnc(CN(C)C2CCN(CCCc3cnn(C)c3)C2)o1 (stereo unspecified)	-8%
CCCc1nc(CN2CCCN(Cc3nccn3C)CC2)no1	-14.9%
O=C(Cc1ccc(F)c(Br)c1)N1CCN(CCO)CC1	-3.28%
Cc1nc(C)n(CC2CCCCN2Cc2cn3ccccc3n2)n1 (stereo unspecified)	-19.3%
CCN(CC(=O)NC1(C)CCS(=O)(=O)C1)Cc1ccc(OC)c(F)c1 (stereo unspecified)	-9.28%
Cc1cc(C(=O)N2CCN(Cc3ccsc3)CC2)n(C)n1	-14.3%
CCc1sc(C(=O)N2CCC(Nc3ccc(C)nn3)CC2)cc1C	-14.5%
N#Cc1cccc(OCCN2CCn3c(nnc3C3CC3)C2)c1	-11%

SMILES	cytotoxicity at 70.5 h
Cc1nc(C)n(CC2CCCN(Cc3cn4c(C)cccc4n3)C2)n1 (stereo unspecified)	-11.6%
c1ccc2cc(OCCCN3CCn4c(nnc4C4CC4)C3)ccc2c1	-6.02%
CN(CC(=O)NC1(C)CCS(=O)(=O)C1)Cc1ccc(Br)cc1 (stereo unspecified)	7.79%
COc1ccc(C(=O)NCCNC(=O)c2scnc2Cl)cc1	-2.78%
Cc1ccc(C(=O)N2CCN(Cc3ccc(C#N)cc3)CC2)n1C	-2.38%
Cc1ccc(-c2nc(CN3CCn4c(C)nnc4C3)co2)cc1	-6.98%
O=C(CN1CCc2cncnc2C1)Nc1ccc(Cl)cn1	6.59%
Cc1ccc(NC2CCN(C(=O)c3cc4c(s3)CCC4)CC2)nn1	-13.9%
CCc1ncc2c(n1)CN(CC(=O)Nc1nncs1)CC2	-7.12%
COc1ccc(S(=O)(=O)N2CCc3ccc(Cl)cc32)cc1C(=O)O	0.6%
Cc1ccc(S(=O)(=O)N2CCc3ccc(F)cc32)cc1C(=O)O	-6.54%
COc1cc(S(=O)(=O)N2CCc3ccccc32)cc(C(=O)O)c1OC	-5.58%
COc1cc(S(=O)(=O)N2CCc3cc(Br)ccc32)cc(C(=O)O)c1OC	-0.737%
Cc1ccc(NC2CCN(C(=O)c3ccc(C(N)=O)s3)CC2)nn1	-5.83%
Fc1ccc(-c2nc(CN3CCn4c(nnc4C4CC4)C3)co2)cc1	-8.13%
Cc1ccc(-c2nc(CN3CCn4c(nnc4C4CC4)C3)co2)c(C)c1	-5.17%
Cc1oc(C)c(C(=O)N2CCCN(c3nccs3)CC2)c1C	-5.97%
O=C(c1ccc2nncn2c1)N1CCCCC1Cn1cccn1 (stereo unspecified)	8.64%
CCc1noc(C(C)N2CCN(S(=O)(=O)N3CCCC3)CC2)n1 (stereo unspecified)	-8.69%
CCc1noc(C(C)N2CCC(C)CC2)n1 (stereo unspecified)	-3.85%
CCc1noc(C(C)N2CCN(CC(C)C)CC2)n1 (stereo unspecified)	12.8%
CCC1CN(Cc2cccc(C(=O)N(C)C)c2)CCN1CCOC (stereo unspecified)	-8.03%
CN(Cc1ccccc1)CC(O)Cn1cnc2ccccc2c1=O (stereo unspecified)	6.62%
Clc1ccccc1-c1nc(CNC2CCc3ncnn3C2)cs1 (stereo unspecified)	-1.51%

SMILES	cytotoxicity at 70.5 h
CCc1ncc(C(=O)N2CCOCC2c2c(C)n[nH]c2C)s1 (stereo unspecified)	-2.25%
Cc1ccc(Cl)cc1N1CCC(CNC(=O)CCn2ccnn2)C1 (stereo unspecified)	-6.67%
Cc1cccn2cc(CC(=O)N3CCCC(n4cncn4)C3)nc12 (stereo unspecified)	-3.85%
c1ccc(OC2CCCC2)c(CNC2CCc3ncnn3C2)c1 (stereo unspecified)	1.21%
O=C(c1ccc(OCC2CC2)nc1)N1CCCC(n2cncn2)C1 (stereo unspecified)	-12.6%
Cc1ccc(Cl)cc1N1CCC(CNC(=O)CCn2ccnc2)C1 (stereo unspecified)	-10.1%
NC(=O)C1CCN(C(=O)c2cccc(OCc3cscn3)c2)CC1	-12.5%
O=C(c1ccc2c(c1)OCO2)N1CCN(c2cnccn2)CC1	-3.98%
COc1cccc(-n2nnc(C(=O)N3CCCC3)c2C)c1	-13.2%
O=C(NCCCn1ccnc1)N1CCCC1c1cccs1 (stereo unspecified)	-2.86%
O=C(NCCc1cccnc1)N1CCCC1c1ccsc1 (stereo unspecified)	-0.435%
Cc1noc(C)c1CN(C)C(=O)NC1CCN(c2ncccn2)CC1	35.3%
CN(C)c1cc(C(=O)N2CCN(c3cnccn3)CC2)ccn1	-13.9%
CCN(CC1CCOC1)C(=O)Nc1ccc(-n2cncn2)nc1 (stereo unspecified)	-9.69%
CC(Nc1cccc(CN2CCOC2=O)c1)C(=O)NC(N)=O (stereo unspecified)	32%
CC(Nc1cccc(CN2CCOC2=O)c1)C(=O)N1CCNC1=O (stereo unspecified)	-6.02%
Cn1ccc(CN2CCC(NC(=O)NC3CCCCC3)CC2)cc1=O	-5.64%
CC(C)N(Cc1nc2c(cnn2C)c(=O)[nH]1)c1ccccc1	3.46%
CCOc1ccc(Cl)c(C(=O)NCc2ccc(C(=O)NC)cc2)n1	4.62%
CN(Cc1ccccc1)C(=O)c1nc(S(C)(=O)=O)n2ccccc12	31.2%
Cc1cc(C2CCCN2CCCS(=O)(=O)c2ccccc2)no1 (stereo unspecified)	-4.85%
CC(C)CN(Cc1nc2c(cnn2C)c(=O)[nH]1)C(C)C	-2.34%
CCNC(=O)N1CCN(C(=O)c2cc(Cl)cc3cccnc23)CC1	-9.51%
O=C(c1ccc(C(F)(F)F)nc1)N1CCCC(n2cncn2)C1 (stereo unspecified)	-1.03%

SMILES	cytotoxicity at 70.5 h
O=C(Nc1cccc(N2CCCC2)c1)C1CCCN1c1nccs1 (stereo unspecified)	-2.18%
CN(C)c1cc2c(nn1)CCN(C(=O)Cc1noc3ccccc13)C2	9.27%
Cc1nc(C)n(CC2CCCN2Cc2cn3ccsc3n2)n1 (stereo unspecified)	3.39%
O=C1C(NCc2nnc3n2CCCC3)CCCN1c1cccc(F)c1 (stereo unspecified)	-3.38%
Cc1ccc(CCN2CCC(N(C)Cc3noc(C4CC4)n3)C2)cc1 (stereo unspecified)	3.87%
CC(C)CC(CNC(=O)NCc1cc[nH]n1)N1CCOCC1 (stereo unspecified)	39.4%
COc1cc(CNC(=O)C2CC(=O)N(C(C)C)C2)ccn1 (stereo unspecified)	-16.6%
O=C(Nc1nccs1)NC1CCN(Cc2ccccc2)C1 (stereo unspecified)	-8.23%
Cc1noc(C2CCN(C(=O)c3ccc(N(C)C)nc3)CC2)n1	-29.1%
Cc1ccccc1-c1cc(C(=O)NCCN2CCCS2(=O)=O)[nH]n1	-15.5%
CC(C)c1cc(C(=O)NCCN2CCCS2(=O)=O)n[nH]1	-19.6%
Cc1noc(C2CCN(C(=O)CN(C)c3ccc(Cl)cn3)CC2)n1	-20.9%
CN1CCN(c2cc(CNC(=O)c3ccc(=O)n(C)c3)ccn2)CC1	-15.6%
COc1cc(C)nc(N2CCN(C(=O)CN(C)C3CC3)CC2)n1	-4.51%
COc1cc(C)nc(N2CCN(C(=O)COCC(F)(F)F)CC2)n1	-15.4%
CCn1ccnc1CN1CCCN(C(=O)c2cccn2C)CC1	23.9%
Cn1cnc2c1CCN(Cc1cccc(C(N)=O)c1)C2	-7.77%
Cn1cc(CN2CCCN(C(=O)c3cc[nH]n3)CC2)cn1	-9.96%
CCc1nc(C2CCCN2C(=O)c2ncoc2CC)no1 (stereo unspecified)	-5.48%
CCc1[nH]ncc1C(=O)N1CCCC(n2nc(C)nc2C)C1 (stereo unspecified)	19.7%

From ChEMBL document CHEMBL3507680, “University of Dundee, Gates Library screen for HepG2 cell viability”
